Results from patent US9029377B2, “Platelet-activating factor receptor antagonists” (Merck Sharp & Dohme Corp., priority 2009, dated 2015).

Molecular target: PAFR (Homo sapiens, UniProt P25105)
Assay: PAF Binding Assay (PAFR binding)

Chain of PAFR (P25105 whole entry): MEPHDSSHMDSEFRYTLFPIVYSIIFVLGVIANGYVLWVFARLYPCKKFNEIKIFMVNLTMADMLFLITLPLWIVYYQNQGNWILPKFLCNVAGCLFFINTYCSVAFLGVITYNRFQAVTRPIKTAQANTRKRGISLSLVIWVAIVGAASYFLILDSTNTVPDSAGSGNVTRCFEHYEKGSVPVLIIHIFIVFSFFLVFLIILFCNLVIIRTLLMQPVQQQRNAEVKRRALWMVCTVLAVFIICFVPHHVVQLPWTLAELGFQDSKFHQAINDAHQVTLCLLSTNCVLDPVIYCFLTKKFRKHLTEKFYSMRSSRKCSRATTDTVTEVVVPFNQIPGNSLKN

| Compound | IC50 |
| --- | --- |
| CCc1cc(-c2ccc(OC(C(F)(F)F)C(F)(F)F)cc2)ccc1S(=O)(=O)N[C@H]1CCC[C@@H](n2cnnc2)C1 [Compound 2Aap, 3-ethyl-N-[(1S,3R)-3-(4H-1,2,4-triazol-4-yl)cyclohexyl]-4′-[2,2,2-trifluoro-1-(trifluoromethyl)ethoxy]biphenyl-4-sulfonamide] | 1.7 nM |
| CCc1cc(OCCCC(F)(F)F)ccc1S(=O)(=O)N[C@H]1CCC[C@@H](n2cnnc2C)C1 [Compound 2Abj, 2-ethyl-N-[(1S,3R)-3-(3-methyl-4H-1,2,4-triazol-4-yl)cyclohexyl]-4-(4,4,4-trifluorobutoxy)benzenesulfonamide] | 2.7 nM |
| CCc1cc(-c2ccc(NC(C)=O)cc2)ccc1S(=O)(=O)N[C@H]1CCC[C@@H](n2cnnc2)C1 [Compound 2Aao, N′-[3′-ethyl-4′-({[(1S,3R)-3-(4H-1,2,4-triazol-4-yl)cyclohexyl]amino}sulfonyl)biphenyl-4-yl]acetamide] | 57 nM |
| CCCCOc1ccc(S(=O)(=O)N[C@H]2CCC[C@@H](n3cnnc3)C2)cc1 [Compound 2Mw, 4-butoxy-N-[(1S,3R)-3-(4H-1,2,4-triazol-4-yl)cyclohexyl]benzenesulfonamide] | 8.3 nM |
| O=S(=O)(N[C@H]1CCC[C@@H](n2cnnc2)C1)c1ccc(-c2noc(C(F)(F)F)n2)cc1C1CC1 [2 Kb, 2-cyclopropyl-N-[(1S,3R)-3-(4H-1,2,4-triazol-4-yl)cyclohexyl]-4-[5-(trifluoromethyl)-1,2,4-oxadiazol-3-yl]benzenesulfonamide] | 16 nM |
| O=S(=O)(N[C@H]1CCC[C@@H](n2cnnc2)C1)c1ccc(Oc2ncc(C(F)(F)F)cc2Cl)cc1 [Compound 2Mab, 4-{[3-chloro-5-(trifluoromethyl)pyridin-2-yl]oxy}-N-[(1S,3R)-3-(4H-1,2,4-triazol-4-yl)cyclohexyl]benzenesulfonamide] | 66 nM |
| CCCCOc1ccc(S(=O)(=O)N[C@@H]2C[C@H](n3cnnc3C)CC(F)(F)C2)cc1 [Compound 2Qw, 4-butoxy-N-[(1R,5S)-3,3-difluoro-5-(3-methyl-4H-1,2,4-triazol-4-yl)cyclohexyl]benzenesulfonamide] | 4.2 nM |
| O=S(=O)(N[C@@H]1C[C@H](n2cnnc2)CC(F)(F)C1)c1cc(-c2ccc(F)cc2)cc(C(F)(F)F)c1 [3 Cc] | 36 nM |
| CCc1cc(-c2ccc(O)cc2)ccc1S(=O)(=O)N[C@H]1CCC[C@@H](n2cnnc2)C1 [Compound 2Aad, 3-ethyl-4′-hydroxy-N-[(1S,3R)-3-(4H-1,2,4-triazol-4-yl)cyclohexyl]biphenyl-4-sulfonamide] | 36 nM |
| CCc1cc(-c2cncs2)ccc1S(=O)(=O)N[C@H]1CCC[C@@H](n2cnnc2)C1 [Compound 2Aax, 2-ethyl-4-(1,3-thiazol-5-yl)-N-[(1S,3R)-3-(4H-1,2,4-triazol-4-yl)cyclohexyl]benzenesulfonamide] | 203 nM |

Results, then the compound that gave them:

| IC50 | Compound |
| --- | --- |
| 526 nM | O=S(=O)(N[C@H]1CCC[C@@H](n2cnnc2)C1)c1cc(-c2ccc(O)nc2)cc(C(F)(F)F)c1 [Compound 3Ai, 3-(6-hydroxypyridin-3-yl)-N-[(1S,3R)-3-(4H-1,2,4-triazol-4-yl)cyclohexyl]-5-(trifluoromethyl)benzenesulfonamide] |
| 2.7 nM | O=S(=O)(N[C@H]1CCC[C@@H](n2cnnc2)C1)c1ccc(-c2noc(C3CC3)n2)cc1C1CC1 [Compound 2Ka, 2-cyclopropyl-4-(5-cyclopropyl-1,2,4-oxadiazol-3-yl)-N-[(1S,3R)-3-(4H-1,2,4-triazol-4-yl)cyclohexyl]benzenesulfonamide] |
| 370 nM | CCc1cccc(S(=O)(=O)N[C@@H]2C[C@H](n3cnnc3)CC(F)(F)C2)c1 [Compound 2Pk, N-[(1R,5S)-3,3-difluoro-5-(4H-1,2,4-triazol-4-yl)cyclohexyl]-3-ethylbenzenesulfonamide] |
| 15 nM | O=S(=O)(N[C@H]1CCC[C@@H](n2cnnc2)C1)c1cc(-c2cccc3ccccc23)cc(C(F)(F)F)c1 [Compound 3Ao, 3-(1-naphthyl)-N-[(1S,3R)-3-(4H-1,2,4-triazol-4-yl)cyclohexyl]-5-(trifluoromethyl)benzenesulfonamide] |
| 3.6 nM | CCc1cc(-c2ccc(OC(F)(F)F)cc2)ccc1S(=O)(=O)N[C@H]1CCC[C@@H](n2cnnc2)C1 [Compound 2b, 3-ethyl-N-[(1S,3R)-3-(4H-1,2,4-triazol-4-yl)cyclohexyl]-4′-(trifluoromethoxy)biphenyl-4-sulfonamide] |
| 8.1 nM | O=S(=O)(N[C@H]1CCC[C@@H](n2cnnc2)C1)c1cc(-c2ccc(C(F)(F)F)cc2)cc(C(F)(F)F)c1 [Compound 3Al, N-[(1S,3R)-3-(4H-1,2,4-triazol-4-yl)cyclohexyl]-4′,5-bis(trifluoromethyl)biphenyl-3-sulfonamide] |
| 38 nM | CCc1cc(-c2ccc3c(c2)OCO3)ccc1S(=O)(=O)N[C@H]1CCC[C@@H](n2cnnc2)C1 [Compound 2Ax, 4-(1,3-benzodioxol-5-yl)-2-ethyl-N-[(1S,3R)-3-(4H-1,2,4-triazol-4-yl)cyclohexyl]benzenesulfonamide] |
| 210 nM | COc1ccc(S(=O)(=O)N[C@H]2CCC[C@@H](n3cnnc3)C2)c(OC)c1 [Compound 2My, 2,4-dimethoxy-N-[(1S,3R)-3-(4H-1,2,4-triazol-4-yl)cyclohexyl]benzenesulfonamide] |
| 22 nM | CCc1cc(-c2ccccc2F)ccc1S(=O)(=O)N[C@H]1CCC[C@@H](n2cnnc2)C1 [Compound 2Al, 3-ethyl-2′-fluoro-N-[(1S,3R)-3-(4H-1,2,4-triazol-4-yl)cyclohexyl]benzenesulfonamide] |
| 16 nM | CCc1cc(-c2ccc(F)cc2F)ccc1S(=O)(=O)N[C@H]1CCC[C@@H](n2cnnc2)C1 [Compound 2Av, 3-ethyl-2′,4′-difluoro-N-[(1S,3R)-3-(4H-1,2,4-triazol-4-yl)cyclohexyl]biphenyl-4-sulfonamide] |
| 95 nM | CCc1cc(-c2ccncc2)ccc1S(=O)(=O)N[C@H]1CCC[C@@H](n2cnnc2)C1 [Compound 2Ak, 2-ethyl-4-pyridin-4-yl-N-[(1S,3R)-3-(4H-1,2,4-triazol-4-yl)cyclohexyl]benzenesulfonamide] |
| 19 nM | CCc1cc(-c2cc(OC)cc(OC)c2)ccc1S(=O)(=O)N[C@H]1CCC[C@@H](n2cnnc2)C1 [Compound 2Au, 3-ethyl-3′,5′-dimethoxy-N-[(1S,3R)-3-(4H-1,2,4-triazol-4-yl)cyclohexyl]biphenyl-4-sulfonamide] |
| 6.3 nM | O=S(=O)(N[C@H]1CCC[C@@H](n2cnnc2C2CC2)C1)c1ccc(-c2noc(C3CC(F)(F)C3)n2)cc1OC(F)(F)F [Compound 2Bd, N-[(1S,3R)-3-(3-cycloropyl-4H-1,2,4-triazol-4-yl)cyclohexyl]-4-[5-(3,3-difluorocyclobutyl)-1,2,4-oxadiazol-3-yl]-2-(trifluoromethoxy)benzenesulfonamide] |
| 165 nM | O=S(=O)(N[C@H]1CCC[C@@H](n2cnnc2)C1)c1cc(Br)cc(C(F)(F)F)c1 [Compound 2Mi, 3-bromo-N-[(1S,3R)-3-(4H-1,2,4-triazol-4-yl)cyclohexyl]-5-(trifluoromethyl)benzenesulfonamide] |
| 10 nM | O=S(=O)(N[C@@H]1C[C@H](n2cnnc2)CC(F)(F)C1)c1ccc(-c2ccc(OC(F)(F)F)cc2)c(F)c1 [Compound 2Ga, N-[(1R,5S)-3,3-difluoro-5-(4H-1,2,4-triazol-4-yl)cyclohexyl]-2-fluoro-4′-(trifluoromethoxy)biphenyl-4-sulfonamide] |
